Literature values as cited in patent US20080317843A1, “NANOPARTICULATE FORMULATIONS OF MODAFINIL” (Elan Corporation plc, priority 2006, published 2008).

Assays:
[1] = for share of trough concentration (Cminss) of circulating modafinil: after once daily dosing
[2] = target: CYP2C19 (Homo sapiens, UniProt P33261)
[3] = test system: receptors for melatonin; details: pharmacologically relevant concentrations
[4] = test system: phosphodiesterases II-V
[5] = test system: CYP3A4; details: chronic administration of modafinil 400 mg; substrates given orally
[6] = target: receptors for histamine-3 (Homo sapiens, UniProt Q9Y5N1); details: pharmacologically relevant concentrations
[7] = test system: receptors for GABA; details: pharmacologically relevant concentrations
[8] = test system: receptors for serotonin; details: pharmacologically relevant concentrations
[9] = test system: receptors for adenosine; details: pharmacologically relevant concentrations
[10] = test system: receptors for benzodiazepines; details: pharmacologically relevant concentrations
[11] = target: T1, MAO-B (Homo sapiens, UniProt P27338)
T1 sequence (P27338 1-520): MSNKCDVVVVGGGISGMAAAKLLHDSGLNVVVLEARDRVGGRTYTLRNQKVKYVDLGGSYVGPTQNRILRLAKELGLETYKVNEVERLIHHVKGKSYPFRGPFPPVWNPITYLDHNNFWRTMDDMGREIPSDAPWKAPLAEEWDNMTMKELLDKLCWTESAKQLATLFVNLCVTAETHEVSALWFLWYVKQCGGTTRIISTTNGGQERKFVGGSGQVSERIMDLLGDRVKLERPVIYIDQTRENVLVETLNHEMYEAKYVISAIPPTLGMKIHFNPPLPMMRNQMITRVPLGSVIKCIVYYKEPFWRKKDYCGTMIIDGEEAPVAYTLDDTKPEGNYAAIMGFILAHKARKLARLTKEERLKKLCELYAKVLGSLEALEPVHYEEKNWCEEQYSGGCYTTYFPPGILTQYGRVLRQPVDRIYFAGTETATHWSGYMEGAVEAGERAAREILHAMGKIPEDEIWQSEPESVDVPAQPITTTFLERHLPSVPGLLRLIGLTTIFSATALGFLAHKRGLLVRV

[12] = test system: receptors for norepinephrine; details: pharmacologically relevant concentrations

CYP2C19, sequence (P33261 whole entry): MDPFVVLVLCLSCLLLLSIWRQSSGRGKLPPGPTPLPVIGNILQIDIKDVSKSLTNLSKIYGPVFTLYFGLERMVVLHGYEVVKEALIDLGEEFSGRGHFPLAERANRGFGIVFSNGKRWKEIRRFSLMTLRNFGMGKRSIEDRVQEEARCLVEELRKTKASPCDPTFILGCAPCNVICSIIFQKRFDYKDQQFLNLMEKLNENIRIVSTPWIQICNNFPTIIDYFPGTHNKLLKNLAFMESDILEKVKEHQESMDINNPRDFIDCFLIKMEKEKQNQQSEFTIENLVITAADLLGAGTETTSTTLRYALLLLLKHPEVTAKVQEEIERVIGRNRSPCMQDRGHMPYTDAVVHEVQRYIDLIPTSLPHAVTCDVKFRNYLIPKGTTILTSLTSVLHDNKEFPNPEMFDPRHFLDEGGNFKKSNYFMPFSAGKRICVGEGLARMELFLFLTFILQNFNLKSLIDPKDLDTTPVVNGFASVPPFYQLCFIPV
receptors for histamine-3, sequence (Q9Y5N1 whole entry): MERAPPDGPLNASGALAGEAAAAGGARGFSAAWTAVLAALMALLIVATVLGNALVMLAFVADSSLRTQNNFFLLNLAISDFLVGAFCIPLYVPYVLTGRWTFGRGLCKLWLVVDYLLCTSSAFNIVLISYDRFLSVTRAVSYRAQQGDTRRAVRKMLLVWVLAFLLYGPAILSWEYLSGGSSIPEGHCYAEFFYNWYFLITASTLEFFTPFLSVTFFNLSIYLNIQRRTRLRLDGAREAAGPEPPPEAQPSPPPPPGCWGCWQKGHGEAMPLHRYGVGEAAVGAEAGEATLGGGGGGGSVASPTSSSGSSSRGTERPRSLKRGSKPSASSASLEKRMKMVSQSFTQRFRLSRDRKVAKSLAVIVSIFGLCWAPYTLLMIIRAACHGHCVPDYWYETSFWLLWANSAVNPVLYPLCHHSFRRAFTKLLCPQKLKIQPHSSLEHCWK

## NC(=O)C[S+]([O-])C(c1ccccc1)c1ccccc1 (single isomer, unassigned) [d-isomer]
[1]
  share of trough concentration (Cminss) of circulating modafinil: 10%

## NC(=O)C[S@@+]([O-])C(c1ccccc1)c1ccccc1 (single isomer, unassigned) [l-isomer]
[1]
  share of trough concentration (Cminss) of circulating modafinil: 90%
[1]; at steady state
  total exposure relative to the d-isomer: approximately three times
[1]; humans
  half-life relative to the d-isomer: approximately three times

## O=C(C[S+]([O-])C(c1ccccc1)c1ccccc1)NO (centres unmarked) [Adrafinil, 2-(diphenylmethyl) sulfinyl acetohydroxamic acid]
other
  solubility in acetone: sparingly to slightly soluble
  solubility in cyclohexane: practically insoluble
  solubility in methanol: sparingly to slightly soluble
  solubility in water: practically insoluble

## NC(=O)CS(=O)(=O)C(c1ccccc1)c1ccccc1 [modafinil sulfone]
[2]
  inhibition of CYP2C19: reversible inhibitors

## NC(=O)C[S+]([O-])C(c1ccccc1)c1ccccc1 (centres unmarked) [modafinil, 2-[(diphenylmethyl)sulfinyl]acetamide]
[3]
  binding to receptors for melatonin: does not bind
other
  solubility in acetone: sparingly to slightly soluble
  solubility in cyclohexane: practically insoluble
  solubility in methanol: sparingly to slightly soluble
  solubility in water: practically insoluble
aqueous
  aqueous insolubility: < 1000 µg/mL
[4]
  inhibition of the activities of phosphodiesterases II-V: does not inhibit
[5]
  systemic exposure to two CYP3A4 substrates, ethinyl estradiol, and triazolam: decrease
[6]
  binding to receptors for histamine-3: does not bind
[7]
  binding to receptors for GABA: does not bind
[8]
  binding to receptors for serotonin: does not bind
[9]
  binding to receptors for adenosine: does not bind
[10]
  binding to receptors for benzodiazepines: does not bind
[2]
  inhibition of CYP2C19: reversible inhibitors
[11]
  inhibition of the activity of MAO-B: does not inhibit
[1]; after multiple doses
  effective elimination half-life: about 15 hours
[1]; single dose 200 mg, 12 subjects mean age 63 years vs matched younger subjects
  decrease in oral clearance (CL/F): ~20%
[1]; with food
  delay of absorption and (tmax) if taken with food: delayed by approximately one hour
  effect of food on overall bioavailability: no effect
[12]
  binding to receptors for norepinephrine: does not bind
